The results in this text go back to ChEMBL document CHEMBL4229547, “Design, synthesis and biological mechanisms research on 1,2,3-triazole derivatives of Jiyuan Oridonin A” (Bioorg Med Chem, 2018).

Structures are written as SMILES.

In one experiment the test system is SMMC-7721. The experiment is described as follows: Antiproliferative activity against human SMMC7721 cells after 48 hrs by MTT assay. Format: functional, cell-based. Particulars: SMMC-7721, 48 h.
As for `C#CCO[C@H]1O[C@@H]2C[C@@H]3C(C)(C)CCC[C@]13[C@@H]1[C@@H](O)C[C@H]3C(=C)C(=O)[C@@]21[C@@H]3O`, half-maximal inhibition (IC50) was put at 15.3 µM.
For `C=C1C(=O)[C@]23[C@H](O)[C@H]1C[C@H](O)[C@H]2[C@]12CCCC(C)(C)[C@H]1C[C@H]3O[C@@H]2OCCc1cn(Cc2ccc(OC)cc2)nn1`, the midpoint of inhibition, the IC50, lay at 4.81 µM.
The same measure, in the same setting: to `C=C1C(=O)[C@]23[C@H](O)[C@H]1C[C@H](O)[C@H]2[C@]12CCCC(C)(C)[C@H]1C[C@H]3O[C@@H]2OCCn1cc(C2CC2)nn1` belongs 9.66 µM; to `C=C1C(=O)[C@]23[C@H](O)[C@H]1C[C@H](O)[C@H]2[C@]12CCCC(C)(C)[C@H]1C[C@H]3O[C@@H]2OCCc1cn(Cc2ccc(Cl)c(Cl)c2)nn1`, 3.76 µM; to `C=C1C(=O)[C@]23[C@H](O)[C@H]1C[C@H](O)[C@H]2[C@]12CCCC(C)(C)[C@H]1C[C@H]3O[C@@H]2OCCc1cn(Cc2ccc(F)cc2)nn1`, 5.88 µM.
As for `C=C1C(=O)[C@]23[C@H](O)[C@H]1C[C@H](O)[C@H]2[C@]12CCCC(C)(C)[C@H]1C[C@H]3O[C@@H]2OCCn1cc(CCCC)nn1`, the IC50 (as a rule, the concentration that inhibits the measured activity by half) worked out at 11 µM.
Still for that read-out and setting: the figure for `C=C1C(=O)[C@]23[C@H](O)[C@H]1C[C@H](O)[C@H]2[C@]12CCCC(C)(C)[C@H]1C[C@H]3O[C@H]2O` is 20.2 µM.

A further experiment deals with MGC-803. The experiment in a line: Antiproliferative activity against human MGC803 cells after 48 hrs by MTT assay. Type of experiment: functional, cell-based. The note with it: MGC-803, 48 h.
Regarding `C#CCO[C@H]1O[C@@H]2C[C@@H]3C(C)(C)CCC[C@]13[C@@H]1[C@@H](O)C[C@H]3C(=C)C(=O)[C@@]21[C@@H]3O`, half-maximal inhibition (IC50) was put at 3.77 µM.
The same measure, in the same setting: the figure for `C=C1C(=O)[C@]23[C@H](O)[C@H]1C[C@H](O)[C@H]2[C@]12CCCC(C)(C)[C@H]1C[C@H]3O[C@@H]2OCCc1cn(Cc2ccc(OC)cc2)nn1` is 4.79 µM; for `C=C1C(=O)[C@]23[C@H](O)[C@H]1C[C@H](O)[C@H]2[C@]12CCCC(C)(C)[C@H]1C[C@H]3O[C@@H]2OCCn1cc(C2CC2)nn1` it is 4.58 µM; for `C=C1C(=O)[C@]23[C@H](O)[C@H]1C[C@H](O)[C@H]2[C@]12CCCC(C)(C)[C@H]1C[C@H]3O[C@H]2O` it is 14.7 µM.

Another experiment has as its system PC-3. The experiment is described as follows: Antiproliferative activity against human PC3 cells after 48 hrs by MTT assay. Particulars: PC-3, 48 h. Format: functional, cell-based. (Tetrazolium dyes change colour on reduction, which living cells bring about.)
The compound `C#CCO[C@H]1O[C@@H]2C[C@@H]3C(C)(C)CCC[C@]13[C@@H]1[C@@H](O)C[C@H]3C(=C)C(=O)[C@@]21[C@@H]3O` registered an IC50 of 3.92 µM.
Still for that read-out and setting: to `C=C1C(=O)[C@]23[C@H](O)[C@H]1C[C@H](O)[C@H]2[C@]12CCCC(C)(C)[C@H]1C[C@H]3O[C@@H]2OCCc1cn(Cc2ccc(OC)cc2)nn1` belongs 4.95 µM.
The same measure, in the same setting: the figure for `C=C1C(=O)[C@]23[C@H](O)[C@H]1C[C@H](O)[C@H]2[C@]12CCCC(C)(C)[C@H]1C[C@H]3O[C@@H]2OCCn1cc(C2CC2)nn1` is 3.79 µM; for `C=C1C(=O)[C@]23[C@H](O)[C@H]1C[C@H](O)[C@H]2[C@]12CCCC(C)(C)[C@H]1C[C@H]3O[C@H]2O` it is 15 µM.

A further experiment relates to MCF7. The experiment is described as follows: Antiproliferative activity against human MCF7 cells after 48 hrs by MTT assay. Format: functional, cell-based. Particulars: MCF7, 48 h.
Turning to `C#CCO[C@H]1O[C@@H]2C[C@@H]3C(C)(C)CCC[C@]13[C@@H]1[C@@H](O)C[C@H]3C(=C)C(=O)[C@@]21[C@@H]3O`, the concentration for half-maximal inhibition (IC50) stood at 14.6 µM.
The same measure, in the same setting: the figure for `C=C1C(=O)[C@]23[C@H](O)[C@H]1C[C@H](O)[C@H]2[C@]12CCCC(C)(C)[C@H]1C[C@H]3O[C@@H]2OCCc1cn(Cc2ccc(OC)cc2)nn1` is 7.81 µM; for `C=C1C(=O)[C@]23[C@H](O)[C@H]1C[C@H](O)[C@H]2[C@]12CCCC(C)(C)[C@H]1C[C@H]3O[C@@H]2OCCn1cc(C2CC2)nn1` it is 11 µM; for `C=C1C(=O)[C@]23[C@H](O)[C@H]1C[C@H](O)[C@H]2[C@]12CCCC(C)(C)[C@H]1C[C@H]3O[C@@H]2OCCc1cn(Cc2ccc(Cl)c(Cl)c2)nn1` it is 6.85 µM.
The same measure, in the same setting: the figure for `C=C1C(=O)[C@]23[C@H](O)[C@H]1C[C@H](O)[C@H]2[C@]12CCCC(C)(C)[C@H]1C[C@H]3O[C@@H]2OCCc1cn(Cc2ccc(F)cc2)nn1` is 6.62 µM; for `C=C1C(=O)[C@]23[C@H](O)[C@H]1C[C@H](O)[C@H]2[C@]12CCCC(C)(C)[C@H]1C[C@H]3O[C@@H]2OCCn1cc(CCCC)nn1` it is 13.4 µM; for `C=C1C(=O)[C@]23[C@H](O)[C@H]1C[C@H](O)[C@H]2[C@]12CCCC(C)(C)[C@H]1C[C@H]3O[C@H]2O` it is 22.9 µM.

In a further experiment the test system is EC9706. The experiment in a line: Antiproliferative activity against human EC9706 cells after 48 hrs by MTT assay. Type of experiment: functional, cell-based. The note with it: EC9706, 48 h.
As for `C#CCO[C@H]1O[C@@H]2C[C@@H]3C(C)(C)CCC[C@]13[C@@H]1[C@@H](O)C[C@H]3C(=C)C(=O)[C@@]21[C@@H]3O`, the IC50 came out at 7.87 µM.
Compound `C=C1C(=O)[C@]23[C@H](O)[C@H]1C[C@H](O)[C@H]2[C@]12CCCC(C)(C)[C@H]1C[C@H]3O[C@@H]2OCCc1cn(Cc2ccc(OC)cc2)nn1` showed an IC50 of 4.67 µM.
On the same count and under the same terms, to `C=C1C(=O)[C@]23[C@H](O)[C@H]1C[C@H](O)[C@H]2[C@]12CCCC(C)(C)[C@H]1C[C@H]3O[C@@H]2OCCn1cc(C2CC2)nn1` belongs 11.4 µM; to `C=C1C(=O)[C@]23[C@H](O)[C@H]1C[C@H](O)[C@H]2[C@]12CCCC(C)(C)[C@H]1C[C@H]3O[C@@H]2OCCc1cn(Cc2ccc(Cl)c(Cl)c2)nn1`, 4.21 µM.
The same measure, in the same setting: the figure for `C=C1C(=O)[C@]23[C@H](O)[C@H]1C[C@H](O)[C@H]2[C@]12CCCC(C)(C)[C@H]1C[C@H]3O[C@@H]2OCCc1cn(Cc2ccc(F)cc2)nn1` is 4.5 µM; for `C=C1C(=O)[C@]23[C@H](O)[C@H]1C[C@H](O)[C@H]2[C@]12CCCC(C)(C)[C@H]1C[C@H]3O[C@@H]2OCCn1cc(CCCC)nn1` it is 8.29 µM; for `C=C1C(=O)[C@]23[C@H](O)[C@H]1C[C@H](O)[C@H]2[C@]12CCCC(C)(C)[C@H]1C[C@H]3O[C@H]2O` it is 22.5 µM.

In a further experiment the test system is ECa-109 cell line. The experiment is described as follows: Antiproliferative activity against human ECA109 cells after 48 hrs by MTT assay. Type of experiment: functional, cell-based. Particulars: ECa-109, 48 h.
Compound `C#CCO[C@H]1O[C@@H]2C[C@@H]3C(C)(C)CCC[C@]13[C@@H]1[C@@H](O)C[C@H]3C(=C)C(=O)[C@@]21[C@@H]3O` came in with an IC50 of 10.8 µM.
The same measure, in the same setting: to `C=C1C(=O)[C@]23[C@H](O)[C@H]1C[C@H](O)[C@H]2[C@]12CCCC(C)(C)[C@H]1C[C@H]3O[C@@H]2OCCc1cn(Cc2ccc(OC)cc2)nn1` belongs 2.57 µM.
The compound `C=C1C(=O)[C@]23[C@H](O)[C@H]1C[C@H](O)[C@H]2[C@]12CCCC(C)(C)[C@H]1C[C@H]3O[C@@H]2OCCn1cc(C2CC2)nn1` came in with an IC50 of 4.3 µM.
As for `C=C1C(=O)[C@]23[C@H](O)[C@H]1C[C@H](O)[C@H]2[C@]12CCCC(C)(C)[C@H]1C[C@H]3O[C@@H]2OCCc1cn(Cc2ccc(Cl)c(Cl)c2)nn1`, the midpoint of inhibition, the IC50, lay at 2.58 µM.
On the same count and under the same terms, the figure for `C=C1C(=O)[C@]23[C@H](O)[C@H]1C[C@H](O)[C@H]2[C@]12CCCC(C)(C)[C@H]1C[C@H]3O[C@@H]2OCCc1cn(Cc2ccc(F)cc2)nn1` is 3.68 µM.
`C=C1C(=O)[C@]23[C@H](O)[C@H]1C[C@H](O)[C@H]2[C@]12CCCC(C)(C)[C@H]1C[C@H]3O[C@@H]2OCCn1cc(CCCC)nn1` returned a half-inhibitory concentration (IC50) of 4.45 µM.
Still for that read-out and setting: to `C=C1C(=O)[C@]23[C@H](O)[C@H]1C[C@H](O)[C@H]2[C@]12CCCC(C)(C)[C@H]1C[C@H]3O[C@H]2O` belongs 20.7 µM.
